From patent publication US20240025887A1, “THIENYL AND CYCLOALKYL AMINOPYRIMIDINE COMPOUNDS AS INHIBITORS OF NUAK KINASES, COMPOSITIONS AND USES THEREOF” (Ontario Institute for Cancer Research (OICR), priority 2021, published 2024)

What was measured:
NUAK2 (h) = biological target: T1, NUAK2 (h) (Homo sapiens, UniProt Q9H093); experiment: NUAK2 enzymatic assay (radiometric, Eurofins); type: biochemical; conditions: for AUR-A (IC50, nM)/NUAK2 (IC50, nM): NUAK2 selectivity over Aurora-A, ratio of IC50s; for IC50: radiometric, full-length recombinant enzyme
T1 construct: This assay was done radiometrically using full-length, recombinant enzyme; purchased Eurofins
T1 sequence (Q9H093 1-628): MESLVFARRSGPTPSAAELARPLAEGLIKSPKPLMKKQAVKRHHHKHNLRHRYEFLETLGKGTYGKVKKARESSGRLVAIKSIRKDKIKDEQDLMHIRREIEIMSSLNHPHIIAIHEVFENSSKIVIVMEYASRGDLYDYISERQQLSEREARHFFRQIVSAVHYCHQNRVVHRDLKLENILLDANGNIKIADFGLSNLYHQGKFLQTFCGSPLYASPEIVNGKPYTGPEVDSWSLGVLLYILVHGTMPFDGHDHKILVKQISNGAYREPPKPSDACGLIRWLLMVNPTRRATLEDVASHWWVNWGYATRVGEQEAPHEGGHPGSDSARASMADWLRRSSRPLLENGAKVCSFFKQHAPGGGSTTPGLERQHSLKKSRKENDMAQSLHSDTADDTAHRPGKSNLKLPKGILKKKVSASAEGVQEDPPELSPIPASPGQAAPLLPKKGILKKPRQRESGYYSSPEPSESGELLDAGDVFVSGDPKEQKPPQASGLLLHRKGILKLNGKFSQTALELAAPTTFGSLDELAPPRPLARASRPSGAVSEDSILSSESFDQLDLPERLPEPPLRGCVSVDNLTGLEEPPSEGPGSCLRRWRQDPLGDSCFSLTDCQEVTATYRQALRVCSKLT
In short: (§1)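 Radiometric assay with full-length recombinant NUAK2 in 8 mM MOPS pH 7.0, 0.2 mM EDTA, 10 mM magnesium acetate, 300 μM peptide substrate and [33P]-ATP, 40 min at room temperature. Phosphoric acid stop, filter capture, scintillation counting. Aurora A and NUAK1 used as counter screens.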

NUAK1 = biological target: T2, NUAK1 (Homo sapiens, UniProt O60285); experiment: NUAK1 counter screen; type: biochemical
T2 sequence (O60285 1-661): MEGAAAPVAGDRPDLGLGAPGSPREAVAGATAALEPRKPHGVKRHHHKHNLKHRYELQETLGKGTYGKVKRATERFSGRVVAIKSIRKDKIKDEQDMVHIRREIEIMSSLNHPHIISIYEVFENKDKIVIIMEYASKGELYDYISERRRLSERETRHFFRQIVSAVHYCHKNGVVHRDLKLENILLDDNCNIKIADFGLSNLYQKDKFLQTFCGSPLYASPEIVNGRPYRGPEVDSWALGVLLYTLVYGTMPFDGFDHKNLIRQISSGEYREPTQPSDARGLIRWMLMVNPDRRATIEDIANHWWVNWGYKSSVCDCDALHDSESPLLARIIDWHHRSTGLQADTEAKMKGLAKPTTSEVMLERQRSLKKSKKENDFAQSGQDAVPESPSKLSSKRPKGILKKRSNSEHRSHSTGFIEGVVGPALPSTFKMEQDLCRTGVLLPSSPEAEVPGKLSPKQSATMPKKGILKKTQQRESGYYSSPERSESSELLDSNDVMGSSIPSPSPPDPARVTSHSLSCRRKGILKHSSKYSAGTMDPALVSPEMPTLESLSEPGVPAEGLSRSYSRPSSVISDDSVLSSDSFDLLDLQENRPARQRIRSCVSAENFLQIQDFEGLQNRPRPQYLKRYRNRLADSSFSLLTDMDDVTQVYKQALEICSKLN
In short: as §1

Aurora A = biological target: T3, Aurora A (Homo sapiens, UniProt O14965); experiment: Aurora A counter screen; type: biochemical; conditions: read-out: AUR-A (IC50)
T3 sequence (O14965 1-403): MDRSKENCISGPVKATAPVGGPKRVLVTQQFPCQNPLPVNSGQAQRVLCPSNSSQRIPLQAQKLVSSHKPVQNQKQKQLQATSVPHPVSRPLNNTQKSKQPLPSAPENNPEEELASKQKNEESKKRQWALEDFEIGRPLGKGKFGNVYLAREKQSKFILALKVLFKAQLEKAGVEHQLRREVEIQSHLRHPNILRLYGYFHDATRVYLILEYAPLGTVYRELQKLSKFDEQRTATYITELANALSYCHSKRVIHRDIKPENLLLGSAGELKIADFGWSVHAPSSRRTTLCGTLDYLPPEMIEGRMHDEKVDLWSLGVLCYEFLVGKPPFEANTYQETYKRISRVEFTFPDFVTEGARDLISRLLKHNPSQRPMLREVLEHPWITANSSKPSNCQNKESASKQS
In short: as §1

[1] = tested on: YAP/TAZ nuclear localization in Clover-YAP expressing MDA-MB-231 cells; experiment: Cell-based YAP/TAZ localization assay; conditions: Clover-YAP MDA-MB-231 cells, live imaging every 10 min for 2 h, FIG. 1
Description: Compounds of the application were tested for their ability to inhibit localization of YAP/TAZ to the nucleus of cells using an assay generally described in Nature Communications, 2018, 9:3510. Live cell imaging of Clover-YAP expressing MDA-MB-231 cells was carried out using a custom WAVE-FX-X1 spinning disc confocal system (Quorum Technologies) with a modified Yokogawa CSU-X1 scanhead on an AxioObserver Z1 inverted microscope (Carl Zeiss) with a x40 NA 1.2 Plan Apochromat (Carl Zeiss) objective. Cells were plated in a 35 mm glass-bottom dish (Mat-Tek, P35G-1.5-14-C) and were maintained in a stage-top incubator at 37° C. and 5% CO2 during imaging. Cells were cultured in phenol-red free RPMI medium (Thermo Fisher Scientific, 11835030) with 5% FBS and 200 nM SiR-DNA (Spirochrom, S0007) was added 1 h prior to imaging to visualize the nuclei. Localization of Clover-YAP was monitored every 10 min for 2 h. Volocity software was used for image acquisition and processing.

[2] = tested on: pSer445 MYPT1 in MDA-MB-231 cells; experiment: Cell-based phospho-MYPT1 assay; conditions: 500 nM, 1 hour, immunoblot, FIG. 2
Description: Compounds with sufficient activity in the biochemical NUAK assay were evaluated in a cell-based assay to confirm their targeted activity. To allow direct assessment of target engagement by NUAK2 inhibitors in cells, an antibody to MYPT1, a NUAK2 substrate, which specifically recognizes the phosphorylated Ser445 epitope in endogenous MYPT1 protein was utilized (Biochem J. 2014 457 (Pt 1): 215-225; Biochem J. 201 461 (Pt 2): 233-245).
MDA-MB-231 cells were incubated in the absence (DMSO) or presence of Compound I-1 (500 nM) for 1 hour. Cell were lysed at 4° C. for 30 mins in RIPA buffer (50 mM tris-HCL, 150 mM NaCl, 1 mM EDTA, 0.1% SDS, 1% NP-40, 0.5% Sodium deoxycholate) containing protease and phosphatase inhibitors. Samples were separated by sodium dodecyl sulfate-polyacrylamide gel electrophoresis (SDS-PAGE), transferred to nitrocellulose and immunoblotted for the detection of pSer^445MYPT1 or ACTIN.

MDA-MB-231 cells = experiment: Tumor cell growth inhibition assay (ATPlite); type: cell-based; conditions: Homo sapiens, 120 h, MDA-MB-231 breast tumor cell line, 5 days
Description: MDA-MB-231 cells were seeded into a 384-well plate at 1,000 cells/well in 50 μl medium (Alpha-MEM containing 10% FBS, […] Normocin, Invivogen and […] Gentamycin, Invitrogen). Plates were then incubated overnight for the cells to attach. An HP D300 digital dispenser was used to dose cells with DMSO or test compounds across a 16-point range of concentrations (high dose of 10 uM to low dose of 5 nM). Plates were incubated in a humidified 5% CO2 incubator at 37° C. After 5 days, plates were removed from the incubator and equilibrated to room temperature. An equal volume of ATPlite assay reagent was then added to each well, and samples processed according to manufacturer's instructions (Perkin Elmer). Luminescent signals were then measured using an Envision plate reader equipped with a US-Luminescence detector.

[3] = tested on: YAP/TAZ nuclear localization in several cancer cell lines; conditions: IF confocal microscopy; cited from earlier work
[4] = tested on: YAP/TAZ transcriptional function in several cancer cell lines; conditions: PCR; cited from earlier work

Compound	AUR-A (IC50, nM)/NUAK2 (IC50, nM) (NUAK2 (h))	IC50 (NUAK2 (h))	IC50 (NUAK1)	IC50 (Aurora A)	inhibition of YAP/TAZ nuclear localization [1]	formation of cellular p-MYPT1 (pSer445) [2]	IC50 (MDA-MB-231 cells)	YAP/TAZ nuclear localization [3]	YAP/TAZ transcriptional function (target gene expression) [4]
CN1CCN(c2ccc(Nc3ncc(Cl)c(Nc4ccsc4C(N)=O)n3)c(OC(F)F)c2)CC1 [Compound I-1, 3-((5-chloro-2-((2-(difluoromethoxy)-4-(4-methylpiperazin-1-yl)phenyl)amino)pyrimidin-4-yl)amino)thiophene-2-carboxamide]	40	0.1 to 10 nM	11 to 100 nM	101 to 1000 nM	significant improvement in inhibition of YAP/TAZ nuclear localization	inhibits the formation of cellular p-MYPT1	195 nM		
CN1CCN(c2ccc(Nc3ncc(Cl)c(Nc4ccsc4C(N)=O)n3)c(OC(F)F)c2F)CC1 [Compound I-42, 3-((5-chloro-2-((2-(difluoromethoxy)-3-fluoro-4-(4-methylpiperazin-1-yl)phenyl)amino)pyrimidin-4-yl)amino)thiophene-2-carboxamide]	86	11 to 100 nM	11 to 100 nM	> 1000 nM			653 nM		
CN1CCN(c2ccc(Nc3ncc(C#N)c(Nc4ccsc4C(N)=O)n3)c(OC(F)F)c2)CC1 [Compound I-38, 3-((5-cyano-2-((2-(difluoromethoxy)-4-(4-methylpiperazin-1-yl)phenyl)amino)pyrimidin-4-yl)amino)thiophene-2-carboxamide]		0.1 to 10 nM	11 to 100 nM	101 to 1000 nM			120 nM		
CN1CCN(c2ccc(Nc3ncc(Cl)c(N[C@@H]4CCCC[C@H]4C(N)=O)n3)c(OC(F)F)c2)CC1 [Compound I-82, (1R,2R)-2-((5-chloro-2-((2-(difluoromethoxy)-4-(4-methylpiperazin-1-yl)phenyl)amino)pyrimidin-4-yl)amino)cyclohexane-1-carboxamide]	176	0.1 to 10 nM	11 to 100 nM	101 to 1000 nM			858 nM		
CCC(=O)Nc1cccc(Oc2nc(Nc3ccc(N4CCN(C)CC4)cc3OC)ncc2Cl)c1 [WZ4003]								a block of YAP/TAZ nuclear localization	attenuates transcriptional function
CN1CCN(C2CCN(c3ccc(Nc4ncc(C(F)(F)F)c(Nc5ccsc5C(N)=O)n4)c(OC(F)F)c3)CC2)CC1 [Compound I-52, 3-((2-((2-(difluoromethoxy)-4-(4-(4-methylpiperazin-1-yl)piperidin-1-yl)phenyl)amino)-5-(trifluoromethyl)pyrimidin-4-yl)amino)thiophene-2-carboxamide]		0.1 to 10 nM	0.1 to 10 nM	11 to 100 nM			142 nM		
CN1CCN(c2ccc(Nc3ncc4cc(C#N)c(=O)n(C5CCCC5)c4n3)cc2)CC1 [ON123300]								a block of YAP/TAZ nuclear localization	attenuates transcriptional function
CN1CCN(C2CCN(c3ccc(Nc4ncc(Cl)c(N[C@@H]5CCCC[C@H]5C(N)=O)n4)c(OC(F)F)c3)CC2)CC1 [Compound I-87, (1R,2R)-2-((5-chloro-2-((2-(difluoromethoxy)-4-(4-(4-methylpiperazin-1-yl)piperidin-1-yl)phenyl)amino)pyrimidin-4-yl)amino)cyclohexane-1-carboxamide]		11 to 100 nM	11 to 100 nM	> 1000 nM			932 nM		
